Measured values as given in patent US20230276831A1, “Food/Beverage Article” (Kikkoman Corporation, priority 2020, published 2023).

How the values were obtained:
[1] = test system: Lactobacillus acidipiscis NBRC 102163; test: Antimicrobial action of licoricidin in liquid seasoning (1), lactic acid bacteria C; type: cell-based; details: Soy sauce; salt 12% (w/v); alcohol 0% (v/v); licoricidin 50 ppm
Description: (§1) Commercially available whole soybean soy sauce (produced by Kikkoman Corporation) was electrodialyzed and then concentrated under reduced pressure to obtain soy sauce at a salt concentration of 0% (w/v) and an alcohol concentration of 0% (v/v). Then, salt and/or alcohol was added to the above-mentioned obtained soy sauce, and the mixture was heat-treated to produce soy sauces at salt concentrations and alcohol concentrations shown in the following Table 5. The pHs of the soy sauces were 4.9 to 5.0.
(§2) Specifically, components contained in dried bonito was extracted with alcohol and water; sugar, salt, and seasonings were blended with the obtained extract; and the resulting mixture was heated to produce bonito stock. The salt concentration of the obtained bonito stock was 0.2% (w/v), the alcohol concentration was 0.15% (v/v), and the pH was 6.1.
(§3) Specifically, Koikuchi soy sauce (produced by Kikkoman Corporation), granulated sugar, potato starch, and water were blended in amounts shown in following Table 7, and the resulting mixture was heated to produce sauce. The salt concentration of the obtained sauce was 5.3% (w/v), the alcohol concentration was 0.8% (v/v), and the pH was 5.0.
(§4) Specifically, the components contained in dried bonito was extracted with water; Koikuchi soy sauce (produced by Kikkoman Corporation), sugar, and salt were blended with the obtained extract; and the resulting mixture was heated to produce Japanese seasoned soup stock. The salt concentration of the obtained Japanese seasoned soup stock was 3% (w/v), the alcohol concentration was 0.4% (v/v), and the pH was 5.5.
(§5) Licoricidin (produced by ChemFaces) was added to each of the liquid seasonings produced in the above-mentioned (1) to concentrations of 1 ppm, 5 ppm, 10 ppm, 25 ppm, and 50 ppm. Lactic acid bacteria described in the following Table 9 were then added to 10^6 to 10^7 cells/mL and cultured at 30° C. for 7 days. After the culture, the number of lactic acid bacteria was measured using the GAM agar medium “Nissui”. Liquid seasoning to which licoricidin was not added was used as a control group, and the antimicrobial activity was evaluated in comparison with the number of lactic acid bacteria in the control group. The evaluation was performed using the criterion shown below.
(§6) • A: The bacterial count decreases to less than 10% of the bacterial count of the control group. • B: The bacterial count decreases to 10% or more and less than 50% of the bacterial count of the control group. • C: The bacterial count decreases to 50% or more and less than 100% of the bacterial count of control group. • D: The bacterial count is the same as the bacterial count of the control group.

[2] = test system: Lactobacillus acidipiscis NBRC 102164; test: Antimicrobial action of licoricidin in liquid seasoning (1), lactic acid bacteria D; type: cell-based; design: key: A: The bacterial count decreases to less than 10% of the bacterial count of the control group.; B: The bacterial count decreases to 10% or more and less than 50% of the bacterial count of the control group.; C: The bacterial count decreases to 50% or more and less than 100% of the bacterial count of control group.; D: The bacterial count is the same as the bacterial count of the control group
Description: as §1, §2, §3, §4, §5, §6

## COc1c(CC=C(C)C)c(O)cc2c1C[C@H](c1ccc(O)c(CC=C(C)C)c1O)CO2 [Licoricidin, 4-[(R)-7-hydroxy-5-methoxy-6-(3-methyl-2-butenyl)chroman-3-yl]-2-(3-methyl-2-butenyl)-1,3-benzenediol]
[1]
  Antimicrobial activity: A (The bacterial count decreases to less than 10% of the bacterial count of the control group.)
[2]; Bonito stock (salt 0.2% (w/v), alcohol 0.15% (v/v), pH 6.1), licoricidin 1 ppm
  Antimicrobial activity: A (The bacterial count decreases to less than 10% of the bacterial count of the control group.)
[2]; Bonito stock (salt 0.2% (w/v), alcohol 0.15% (v/v), pH 6.1), licoricidin 5 ppm
  Antimicrobial activity: A (The bacterial count decreases to less than 10% of the bacterial count of the control group.)
[2]; Bonito stock (salt 0.2% (w/v), alcohol 0.15% (v/v), pH 6.1), licoricidin 10 ppm
  Antimicrobial activity: A (The bacterial count decreases to less than 10% of the bacterial count of the control group.)
[2]; Bonito stock (salt 0.2% (w/v), alcohol 0.15% (v/v), pH 6.1), licoricidin 25 ppm
  Antimicrobial activity: A (The bacterial count decreases to less than 10% of the bacterial count of the control group.)
[2]; Bonito stock (salt 0.2% (w/v), alcohol 0.15% (v/v), pH 6.1), licoricidin 50 ppm
  Antimicrobial activity: A (The bacterial count decreases to less than 10% of the bacterial count of the control group.)
[2]; Japanese seasoned soup stock (salt 3% (w/v), alcohol 0.4% (v/v), pH 5.5), licoricidin 1 ppm
  Antimicrobial activity: D
[2]; Japanese seasoned soup stock (salt 3% (w/v), alcohol 0.4% (v/v), pH 5.5), licoricidin 5 ppm
  Antimicrobial activity: A (The bacterial count decreases to less than 10% of the bacterial count of the control group.)
[2]; Japanese seasoned soup stock (salt 3% (w/v), alcohol 0.4% (v/v), pH 5.5), licoricidin 10 ppm
  Antimicrobial activity: A (The bacterial count decreases to less than 10% of the bacterial count of the control group.)
[2]; Japanese seasoned soup stock (salt 3% (w/v), alcohol 0.4% (v/v), pH 5.5), licoricidin 25 ppm
  Antimicrobial activity: A (The bacterial count decreases to less than 10% of the bacterial count of the control group.)
[2]; Japanese seasoned soup stock (salt 3% (w/v), alcohol 0.4% (v/v), pH 5.5), licoricidin 50 ppm
  Antimicrobial activity: A (The bacterial count decreases to less than 10% of the bacterial count of the control group.)
[2]; Sauce (salt 5.3% (w/v), alcohol 0.8% (v/v), pH 5.0), licoricidin 1 ppm
  Antimicrobial activity: C (The bacterial count decreases to 50% or more and less than 100% of the bacterial count of control group.)
[2]; Sauce (salt 5.3% (w/v), alcohol 0.8% (v/v), pH 5.0), licoricidin 5 ppm
  Antimicrobial activity: C (The bacterial count decreases to 50% or more and less than 100% of the bacterial count of control group.)
[2]; Sauce (salt 5.3% (w/v), alcohol 0.8% (v/v), pH 5.0), licoricidin 10 ppm
  Antimicrobial activity: A (The bacterial count decreases to less than 10% of the bacterial count of the control group.)
[2]; Sauce (salt 5.3% (w/v), alcohol 0.8% (v/v), pH 5.0), licoricidin 25 ppm
  Antimicrobial activity: A (The bacterial count decreases to less than 10% of the bacterial count of the control group.)
[2]; Sauce (salt 5.3% (w/v), alcohol 0.8% (v/v), pH 5.0), licoricidin 50 ppm
  Antimicrobial activity: A (The bacterial count decreases to less than 10% of the bacterial count of the control group.)
[2]; Soy sauce, salt 0% (w/v), alcohol 0% (v/v), licoricidin 1 ppm
  Antimicrobial activity: C (The bacterial count decreases to 50% or more and less than 100% of the bacterial count of control group.)
[2]; Soy sauce, salt 0% (w/v), alcohol 0% (v/v), licoricidin 5 ppm
  Antimicrobial activity: C (The bacterial count decreases to 50% or more and less than 100% of the bacterial count of control group.)
[2]; Soy sauce, salt 0% (w/v), alcohol 0% (v/v), licoricidin 10 ppm
  Antimicrobial activity: B (The bacterial count decreases to 10% or more and less than 50% of the bacterial count of the control group.)
[2]; Soy sauce, salt 0% (w/v), alcohol 0% (v/v), licoricidin 25 ppm
  Antimicrobial activity: A (The bacterial count decreases to less than 10% of the bacterial count of the control group.)
[2]; Soy sauce, salt 0% (w/v), alcohol 0% (v/v), licoricidin 50 ppm
  Antimicrobial activity: A (The bacterial count decreases to less than 10% of the bacterial count of the control group.)
[2]; Soy sauce, salt 4% (w/v), alcohol 0% (v/v), licoricidin 1 ppm
  Antimicrobial activity: D
[2]; Soy sauce, salt 4% (w/v), alcohol 0% (v/v), licoricidin 5 ppm
  Antimicrobial activity: A (The bacterial count decreases to less than 10% of the bacterial count of the control group.)
[2]; Soy sauce, salt 4% (w/v), alcohol 0% (v/v), licoricidin 10 ppm
  Antimicrobial activity: A (The bacterial count decreases to less than 10% of the bacterial count of the control group.)
[2]; Soy sauce, salt 4% (w/v), alcohol 0% (v/v), licoricidin 25 ppm
  Antimicrobial activity: A (The bacterial count decreases to less than 10% of the bacterial count of the control group.)
[2]; Soy sauce, salt 4% (w/v), alcohol 0% (v/v), licoricidin 50 ppm
  Antimicrobial activity: A (The bacterial count decreases to less than 10% of the bacterial count of the control group.)
[2]; Soy sauce, salt 8% (w/v), alcohol 0% (v/v), licoricidin 1 ppm
  Antimicrobial activity: C (The bacterial count decreases to 50% or more and less than 100% of the bacterial count of control group.)
[2]; Soy sauce, salt 8% (w/v), alcohol 0% (v/v), licoricidin 5 ppm
  Antimicrobial activity: A (The bacterial count decreases to less than 10% of the bacterial count of the control group.)
[2]; Soy sauce, salt 8% (w/v), alcohol 0% (v/v), licoricidin 10 ppm
  Antimicrobial activity: A (The bacterial count decreases to less than 10% of the bacterial count of the control group.)
[2]; Soy sauce, salt 8% (w/v), alcohol 0% (v/v), licoricidin 25 ppm
  Antimicrobial activity: A (The bacterial count decreases to less than 10% of the bacterial count of the control group.)
[2]; Soy sauce, salt 8% (w/v), alcohol 0% (v/v), licoricidin 50 ppm
  Antimicrobial activity: A (The bacterial count decreases to less than 10% of the bacterial count of the control group.)
[2]; Soy sauce, salt 12% (w/v), alcohol 0% (v/v), licoricidin 1 ppm
  Antimicrobial activity: D
[2]; Soy sauce, salt 12% (w/v), alcohol 0% (v/v), licoricidin 5 ppm
  Antimicrobial activity: A (The bacterial count decreases to less than 10% of the bacterial count of the control group.)
[2]; Soy sauce, salt 12% (w/v), alcohol 0% (v/v), licoricidin 10 ppm
  Antimicrobial activity: A (The bacterial count decreases to less than 10% of the bacterial count of the control group.)
[2]; Soy sauce, salt 12% (w/v), alcohol 0% (v/v), licoricidin 25 ppm
  Antimicrobial activity: A (The bacterial count decreases to less than 10% of the bacterial count of the control group.)
[2]; Soy sauce, salt 12% (w/v), alcohol 0% (v/v), licoricidin 50 ppm
  Antimicrobial activity: A (The bacterial count decreases to less than 10% of the bacterial count of the control group.)
